# Reference: US11116725B2, “Nanoparticles carrying antibiotics” (UNIVERSITY OF SOUTH FLORIDA, priority 2017, dated 2021)
# Columns and labels:
# [1] = tested on: Staphylococcus aureus (ATCC 25923); assay: 96-well plate broth assay, minimum inhibitory concentration (MIC); assay type: cell-based; conditions: ATCC25923, triplicate, 37° C., 16-20 hours, concentration as N-acryloylciprofloxacin, read-out: MIC vs S. aureus (ATCC 25923)
# Method: (§1) Each assay was done in triplicate.
# (§2) The original stock emulsion was diluted using the Trypticase Soy Broth solution to an initial concentration of 1.28 mg/ml of the N-acryloylciprofloxacin, then serial diluted with TSB to half the concentration each time. A volume of 10 μl of each emulsion dilution was added to a well in series, resulting in a final concentration run of 64 μg/ml to 0.012 μg/ml. The MIC was done in triplicates for each bacterium, with ciprofloxacin hydrochloride being used as a positive control and a blank of broth medium was used as a negative control.
# (§3) Bacteria were grown overnight at 37° C. on an agar plate composed of BBL TSA II Trypticase Soy Agar (TSA) and BBL Trypticase Soy Broth (TSB) in a 1:2 ratio at 4.4% concentration. A broth solution of 2.4% TSB was inoculated using the bacteria from the agar plates, and incubated at 37° C. to reach a 0.5 McFarland standard. The bacteria were then further diluted by a factor of 1000 using a broth solution of 2.4% TSB, and 190 μl of the diluted bacterial solution was transferred by micropipette into each well.
# Escherichia coli (K12) = assay: as above; assay type: cell-based; conditions: triplicate, 37° C., 16-20 hours, concentration as N-acryloylciprofloxacin, read-out: MIC vs E. coli (K12)
# Method: as §1, §2, §3
# [2] = Solubility in organic solvents; assay type: physicochemical
# Method: This method was attempted using methanol, ethanol, ethyl acetate, and dichloromethane. […] However, there was a critical issue that resulted with the polymerization procedure. Typically, organics were stirred at 75° C., then the surfactant and water were added. This would cause the dichloromethane to rapidly evaporate.
MIC [1] [µg/mL],MIC (Escherichia coli (K12)) [µg/mL],SMILES,solubility in dichloromethane [2]
0.5,0.012,"O=C(O)c1cn(C2CC2)c2cc(N3CCNCC3)c(F)cc2c1=O [Control Ciprofloxacin, ciprofloxacin]",
,,C=CC(=O)N1CCN(c2cc3c(cc2F)c(=O)c(C(=O)O)cn3C2CC2)CC1 [N-acryloylciprofloxacin],Up to 500 mg/ml
